Experiments:
C. difficile [1] = settings: cited from earlier work
C. difficile [2] = assay: CAT-GxD re-analysis of public C. difficile gene expression datasets (heatmap, PCA, STRING network, KEGG PTS pathway overlay) after DCA or succinate exposure; type: cell-based, Clostridioides difficile; settings: for most of the Glc family phosphorylation and L-ascorbate phosphorylation (KEGG PTS pathway): unchanged in Δsig54
Source text: Typically, specific gene expression datasets and protein quantitation datasets for the selected target organism are collected and made available. In an exemplary form, C. difficile-specific gene expression datasets and protein quantitation datasets were collected from GEO database and ProteomeXchange databases, respectively. An SQL database was generated using RSQlite (version 2.3.4) (25) to incorporate the 56 nonredundant GEO transcriptomics datasets and 8 quantitative proteomic datasets. GEO subseries datasets already available in their respective superseries dataset were excluded. Quantitative total proteomic datasets were included; those focused on post-translational modification studies were excluded. To integrate and normalize the datasets, gene IDs were matched to the Ensembl stable IDs of the widely accepted C. difficile 630 reference strain using BLASTp, using protein identity and gene position comparisons and given the NCBI format CD630. Pre-computed log2 ratios without any gene duplication were imported as is. Studies with replicate log2 ratios assigned for a gene ID (common in microarray experiments due to replicate spots) were solved by computing the median log2 ratio. Two-channel microarray experiments with duplicate ratios assigned to a gene were solved by computing the average of the complementary ratios then log2 transformed. Reads Per Kilobase Million (RPKM) of raw RNASeq data were computed. For datasets without any computed ratios, log2 ratios were calculated for each treatment vs. control, and median normalization was performed. Gene classifications (described in Input and Data Filtering) were compiled to provide a comprehensive and robust search.
To glean additional insight into the interactions between the remaining 26 genes, the analysis was transitioned to the STRING database by clicking on the STRING icon at the top left of the page (expression information, however, will not ‘carry over’). […] The least number of nodes with the higher network association scores were selected to bridge the clusters. […] Next, the 5 bridging nodes and rpoN/sigL/sig54 were added to the 26 gene set and re-entered in the CAT-GXD's ‘Search’ bar. […] In order to link the separate networks, the 26 genes were sent to the STRING database by clicking on the STRING icon.
In the pathway tab in CAT-GxD, gene expression data for specific conditions can be overlaid on selected KEGG pathways.

C. difficile [3] = settings: cited from earlier work; remark: listed apart in the source
[4] = C. difficile exposed to 240 μM DCA for 48 hours
[5] = DCA exposure, compared with succinate exposure
[6] = C. difficile exposed to 80 mM succinate for 24 hours
[7] = C. difficile treated with 80 mM succinate for 24 hours

SMILES | biofilm formation in C. difficile (C. difficile [1]) | SigL/Sig54/RpoN expression (C. difficile [2]; [4]) | expression of central bridging node pheA (C. difficile [2]; [4]) | genes of cluster [2] downregulated (C. difficile [2]; [4]) | number of the 27 Δsig54 downregulated genes also downregulated (C. difficile [2]; [4]) | bridging nodes downregulated (C. difficile [2]; C. difficile exposed to 240 μM DCA for 48 hours, bridging nodes ptsH, pheA, pfo, CD3092, CD3640) | expression of cluster [2] bridging node ptsH (C. difficile [2]; DCA exposure (240 μM, 48 hours)) | mannitol (mtlF) phosphorylation (KEGG PTS pathway) (C. difficile [2]; [5]) | sorbitol phosphorylation (KEGG PTS pathway) (C. difficile [2]; [5]) | most of the Glc family phosphorylation and L-ascorbate phosphorylation (KEGG PTS pathway) (C. difficile [2]; DCA ratio (240 μM, 48 hrs)) | biofilm thickness compared with DCA-induced biofilm (C. difficile [1]; succinate versus DCA) | expression of bridging node pfo of clusters [1] and [3] (C. difficile [2]; [6]) | expression of central bridging node pheA (C. difficile [2]; [6]) | expression of cluster [2] bridging node ptsH (C. difficile [2]; [6]) | SigL expression (C. difficile [2]; [7]) | genes (clusters [1] and [3]) displaying contrasting expression patterns relative to Δsig54 (C. difficile [2]; [7]) | genes (of the 10 of cluster [2]) with similar downregulation patterns as with Sig54 loss (C. difficile [2]; [7]) | cellobiose, fructoselysine and sorbitol phosphorylation (KEGG PTS pathway) (C. difficile [2]; succinate exposure, compared with DCA exposure) | most of the Glc family phosphorylation and L-ascorbate phosphorylation (KEGG PTS pathway) (C. difficile [2]; succinate ratio (24 hrs biofilm)) | mtlF expression in succinate induced biofilms (C. difficile [3])
C[C@H](CCC(=O)O)[C@H]1CC[C@H]2[C@@H]3CC[C@@H]4C[C@H](O)CC[C@]4(C)[C@H]3C[C@H](O)[C@]12C [DCA] | induce biofilm formation | downregulated | upregulated | 3 of 10 | 19 of the 27 | 4 of the 5 | downregulated | increased | decreased | downregulated |  |  |  |  |  |  |  |  |  | 
O=C(O)CCC(=O)O [succinate] | induce biofilm formation |  |  |  |  |  |  |  |  |  | significantly thicker biofilm | upregulated | upregulated | downregulated | upregulation | 13 of 27 | 7 of the 10 | increased | downregulated | downregulation

Reference: patent US20240379187A1, “SYSTEMS AND METHODS FOR OMICS-BASED ANALYSIS OF GENE EXPRESSION” (priority 2023, published 2024)
